The nature of assay [1]: Displacement of [3H]Spiperone from recombinant human Dopamine D4.4 receptor expressed in CHO-K1 cell membranes at 10 uM after 120 mins relative to control. Background: In a radioligand displacement assay an active substance lowers the binding of a labelled ligand.
The nature of assay [2]: Displacement of [3H]Spiperone from recombinant human Dopamine D4.4 receptor expressed in CHO-K1 cell membranes after 120 mins.
Assay [3] has as its target D(2) dopamine receptor (Homo sapiens) (UniProt P14416). The assay is described as follows: Displacement of [3H]Spiperone from recombinant human Dopamine D2S receptor expressed in CHO cell membranes at 10 uM after 120 mins relative to control.
Assay [4] has the same target. The assay is described as follows: Displacement of [3H]Spiperone from recombinant human Dopamine D2L receptor expressed in CHO cell membranes at 10 uM after 120 mins relative to control.
Assay [5] deals with D(1A) dopamine receptor (Homo sapiens) (UniProt P21728). The assay is described as follows: Displacement of [3H]SCH-23390 from recombinant human Dopamine D1 receptor expressed in CHO cell membranes at 10 uM after 120 mins relative to control.
Sequence of D(1A) dopamine receptor (Homo sapiens) (P21728 whole entry): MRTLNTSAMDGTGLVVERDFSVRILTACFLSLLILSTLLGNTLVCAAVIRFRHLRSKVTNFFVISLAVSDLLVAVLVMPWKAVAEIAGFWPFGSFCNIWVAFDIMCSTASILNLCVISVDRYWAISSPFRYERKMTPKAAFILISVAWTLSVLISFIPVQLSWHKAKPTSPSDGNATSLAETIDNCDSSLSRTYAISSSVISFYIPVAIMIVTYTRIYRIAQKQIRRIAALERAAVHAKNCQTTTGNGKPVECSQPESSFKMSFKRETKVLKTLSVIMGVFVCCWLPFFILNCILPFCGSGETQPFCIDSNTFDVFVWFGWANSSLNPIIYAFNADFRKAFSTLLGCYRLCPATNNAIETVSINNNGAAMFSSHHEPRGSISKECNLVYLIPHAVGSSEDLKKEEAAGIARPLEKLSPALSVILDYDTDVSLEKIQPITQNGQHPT
Assay [6] deals with D(1B) dopamine receptor (Homo sapiens) (UniProt P21918). The assay is described as follows: Displacement of [3H]SCH-23390 from recombinant human Dopamine D5 receptor expressed in CHO cell membranes at 10 uM after 120 mins relative to control.
Sequence of D(1B) dopamine receptor (Homo sapiens) (P21918 whole entry): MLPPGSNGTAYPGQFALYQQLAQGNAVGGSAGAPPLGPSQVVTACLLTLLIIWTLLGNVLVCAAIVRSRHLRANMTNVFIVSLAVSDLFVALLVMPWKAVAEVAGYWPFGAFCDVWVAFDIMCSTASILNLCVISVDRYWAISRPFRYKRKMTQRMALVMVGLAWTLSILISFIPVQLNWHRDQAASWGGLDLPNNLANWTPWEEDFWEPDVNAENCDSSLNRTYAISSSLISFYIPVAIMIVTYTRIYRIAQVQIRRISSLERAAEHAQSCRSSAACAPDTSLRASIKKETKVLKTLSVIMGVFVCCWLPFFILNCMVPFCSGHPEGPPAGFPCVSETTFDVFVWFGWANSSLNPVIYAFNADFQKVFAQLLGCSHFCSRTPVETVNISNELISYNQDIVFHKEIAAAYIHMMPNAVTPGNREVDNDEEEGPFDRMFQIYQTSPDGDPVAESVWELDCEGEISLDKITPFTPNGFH
Assay [7] deals with D(3) dopamine receptor (Homo sapiens) (UniProt P35462). The assay is described as follows: Displacement of [3H]Spiperone from recombinant human Dopamine D3 receptor expressed in CHO cell membranes at 10 uM after 120 mins relative to control.
Sequence of D(3) dopamine receptor (Homo sapiens) (P35462 whole entry): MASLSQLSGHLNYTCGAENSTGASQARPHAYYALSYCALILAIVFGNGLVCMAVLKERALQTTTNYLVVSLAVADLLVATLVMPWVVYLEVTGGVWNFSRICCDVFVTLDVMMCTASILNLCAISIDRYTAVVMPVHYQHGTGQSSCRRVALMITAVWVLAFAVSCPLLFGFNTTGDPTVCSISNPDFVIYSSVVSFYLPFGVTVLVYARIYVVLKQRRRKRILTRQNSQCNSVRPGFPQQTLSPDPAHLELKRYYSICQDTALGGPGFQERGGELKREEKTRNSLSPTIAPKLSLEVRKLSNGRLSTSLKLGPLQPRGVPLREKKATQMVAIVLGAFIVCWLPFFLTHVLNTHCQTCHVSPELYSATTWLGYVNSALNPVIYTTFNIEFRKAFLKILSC

Sequence of D(2) dopamine receptor (Homo sapiens) (P14416 whole entry): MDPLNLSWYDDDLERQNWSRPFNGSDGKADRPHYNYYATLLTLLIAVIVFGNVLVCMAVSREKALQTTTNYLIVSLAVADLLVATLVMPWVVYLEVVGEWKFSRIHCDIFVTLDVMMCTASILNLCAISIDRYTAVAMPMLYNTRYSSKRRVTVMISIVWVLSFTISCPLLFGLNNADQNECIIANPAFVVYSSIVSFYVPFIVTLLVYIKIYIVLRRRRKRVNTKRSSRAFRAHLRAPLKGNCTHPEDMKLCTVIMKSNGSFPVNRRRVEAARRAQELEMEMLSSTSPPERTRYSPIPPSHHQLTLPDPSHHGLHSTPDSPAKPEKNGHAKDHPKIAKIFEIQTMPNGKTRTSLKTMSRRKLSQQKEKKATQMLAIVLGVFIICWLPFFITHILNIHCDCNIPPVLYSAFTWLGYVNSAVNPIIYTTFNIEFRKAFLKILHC

Consider `N#Cc1ccccc1CN1CCC(F)(F)C(CCc2ccccc2)C1` (racemic), for which, in assay [1], the inhibition came out at 10%.
As to `FC1(F)CCN(Cc2cccc(Cl)c2)CC1CCc1ccccc1` (racemic), the inhibition in assay [1] was determined as 55%.
The same measure, in the same setting: to `Fc1ccc(CN2CCC(F)(F)C(CCc3ccccc3)C2)c(Cl)c1` (racemic) belongs 6%.
With `Fc1ccc2c(CN3CCC(F)(F)C(CCc4ccccc4F)C3)c[nH]c2c1` (racemic), in assay [2], the IC50 came to 31 nM and the Ki was found to be 8.6 nM. Further, the inhibition in assay [1] came out at 95%.
As for `Fc1ccccc1CCC1CN(Cc2c[nH]c3cc(Cl)ccc23)CCC1(F)F` (racemic), the IC50 in assay [2] turned out to be 55 nM. In addition, in assay [2], the inhibitory constant (Ki) was 15.3 nM. Moreover, the inhibition in assay [1] was 96%; in assay [3], 57%; in assay [4], less than 50%; in assay [5], less than 50%; in assay [6], less than 50%; in assay [7], 69%.
For `FC1(F)CCN(Cc2cccc3cc[nH]c23)CC1CCc1ccccc1` (racemic), in assay [2], the IC50 turned out to be 300 nM and the Ki came out at 84 nM. In assay [1], the inhibition amounted to 88%.
As to `COc1ccccc1CCC1CN(Cc2c[nH]c3cccc(F)c23)CCC1(F)F` (racemic), the inhibition in assay [1] was 3%.
Consider `FC1(F)CCN(Cc2ccc3[nH]ncc3c2)CC1CCc1ccccc1` (racemic), for which the inhibition in assay [1] is 68%.
As to `Fc1cccc(CCC2CN(Cc3c[nH]c4cccc(F)c34)CCC2(F)F)c1` (racemic), in assay [1], the inhibition amounted to 59%.
Consider `COc1ccc(CN2CCO[C@H](COc3ccccc3)C2)cc1F`, for which, in assay [2], the IC50 was 56 nM and the Ki is 14.3 nM.
Consider `FC1(F)CCN(Cc2ccc3ncccc3c2)CC1CCc1ccccc1` (racemic), for which, in assay [2], the IC50 worked out at 1360 nM and the Ki is 380 nM. Also, the inhibition in assay [1] is 87%.
`COc1ccccc1CCC1CN(Cc2c[nH]c3cc(Cl)ccc23)CCC1(F)F` (racemic): in assay [2], the 50% inhibitory concentration (IC50) is 230 nM and the Ki turned out to be 64 nM. Also, the inhibition in assay [1] was 94%.
In the case of `COc1cccc(CCC2CN(Cc3c[nH]c4cc(F)ccc34)CCC2(F)F)c1` (racemic), in assay [2], the IC50 amounted to 1540 nM and the inhibitory constant (Ki) was determined as 430 nM. In addition, in assay [1], the inhibition was determined as 88%.
As for `Cc1ccc(CN2CCC(F)(F)[C@@H](CCc3ccccc3)C2)cc1C`, the IC50 in assay [2] was greater than 10000 nM.
Regarding `COc1cccc(CCC2CN(Cc3ncn4ccccc34)CCC2(F)F)c1` (racemic), the inhibition in assay [1] was 66%.
The same measure, in the same setting: to `Fc1cccc(Cl)c1CN1CCC(F)(F)C(CCc2ccccc2)C1` (racemic) belongs 10%; to `COc1ccc2cc(CN3CCC(F)(F)[C@@H](CCc4ccccc4)C3)c(OC)nc2c1`, 25%; to `Fc1cccc2ccc(CN3CCC(F)(F)C(CCc4ccccc4)C3)nc12` (racemic), 69%.
As for `COc1ccc(CCC2CN(Cc3c[nH]c4cc(OC)ccc34)CCC2(F)F)cc1` (racemic), in assay [2], the IC50 was determined as 430 nM and the Ki came to 120 nM. Further, in assay [1], the inhibition worked out at 93%.
Consider `Clc1ccc(CN2CCO[C@H](CCc3ccccc3)C2)cc1`, for which, in assay [2], the IC50 was determined as 130 nM and the inhibition constant Ki was determined as 36 nM.
`FC(F)(F)c1ccc(CN2CCC(F)(F)C(CCc3ccccc3)C2)cc1` (racemic): in assay [1], the inhibition is 79%.
With `COc1ccc(CN2CCC(F)(F)C(CCc3ccccc3)C2)cc1F` (racemic), in assay [2], the IC50 is 110 nM and the Ki amounted to 31 nM. Moreover, the inhibition in assay [1] stood at 88%.
Take `COc1ccccc1CCC1CN(Cc2ccc(Cl)cc2)CCC1(F)F` (racemic): in assay [2], the concentration for half-maximal inhibition (IC50) is 230 nM and the inhibition constant (Ki) was 63 nM. Further, the inhibition in assay [1] turned out to be 75%.
`COc1ccc2c(CN3CCC(F)(F)C(CCc4cccc(F)c4)C3)c[nH]c2c1` (racemic): in assay [2], the IC50 is 45 nM and the Ki amounted to 12.5 nM. Further, in assay [1], the inhibition turned out to be 93%.
Take `CSc1ccc(CN2CCC(F)(F)C(CCc3ccccc3)C2)cc1` (racemic): in assay [2], the half-maximal inhibitory concentration (IC50) amounted to 510 nM and the inhibitory constant (Ki) is 140 nM. The inhibition in assay [1] amounted to 93%.
Take `Fc1ccc2nc(CN3CCC(F)(F)C(CCc4ccccc4)C3)ccc2c1` (racemic): in assay [1], the inhibition was 66%.
For the compound `COc1ccc(CN2CCC(F)(F)C(CCc3ccccc3)C2)cc1OC` (racemic), the inhibition in assay [1] amounted to 77%.
The same measure, in the same setting: to `FC(F)(F)c1cc(CN2CCC(F)(F)C(CCc3ccccc3)C2)cc(C(F)(F)F)c1` (racemic) belongs 0%.
Regarding `Fc1ccccc1CC[C@H]1CN(Cc2c[nH]c3cc(Cl)ccc23)CCC1(F)F`, in assay [2], the half-maximal inhibitory concentration (IC50) amounted to 5990 nM and the inhibitory constant (Ki) turned out to be 1660 nM. The inhibition in assay [1] stood at 59%.
The corresponding values for `Fc1ccc(CCC2CN(Cc3c[nH]c4cc(F)ccc34)CCC2(F)F)cc1` (racemic) are 25 nM, 7 nM and 94%.
Regarding `FC(F)(F)Oc1ccc(CN2CCC(F)(F)C(CCc3ccccc3)C2)cc1` (racemic), the inhibition in assay [1] is 70%.
In the case of `COc1ccc(CCC2CN(Cc3c[nH]c4cc(F)ccc34)CCC2(F)F)cc1` (racemic), in assay [2], the 50% inhibitory concentration (IC50) was found to be 480 nM and the inhibition constant Ki is 130 nM. Besides, the inhibition in assay [1] was determined as 91%.
On to `FC1(F)CCN(Cc2ccc(Cl)cc2)CC1CCc1ccccc1` (racemic), for which, in assay [2], the IC50 worked out at 760 nM and the inhibitory constant (Ki) came to 210 nM. For the same compound, the inhibition in assay [1] was 80%.
For `COc1ccc(CN2CCC(F)(F)C(CCc3ccccc3)C2)cc1` (racemic), in assay [2], the half-maximal inhibitory concentration (IC50) was 430 nM and the Ki was determined as 120 nM. Further, the inhibition in assay [1] amounted to 87%.
For the compound `Fc1cccc(CCC2CN(Cc3c[nH]c4cc(Cl)ccc34)CCC2(F)F)c1` (racemic), in assay [2], the IC50 was 160 nM and the Ki worked out at 44 nM. For the same compound, the inhibition in assay [1] stood at 94%.
The corresponding values for `COc1ccc2c(CN3CCC(F)(F)C(CCc4ccccc4OC)C3)c[nH]c2c1` (racemic) are 370 nM, 100 nM and 76%.
Taken in the same sequence, the figures for `Fc1ccccc1CCC1CN(Cc2ccc(Cl)cc2)CCC1(F)F` (racemic) were 98 nM, 27 nM and 92%.
On to `N#Cc1cc(CN2CCC(F)(F)C(CCc3ccccc3)C2)ccc1F` (racemic), for which, in assay [1], the inhibition was 66%.
With `Fc1cccc(CCC2CN(Cc3ncn4ccccc34)CCC2(F)F)c1` (racemic), the inhibition in assay [1] was 78%.
In the case of `FC1(F)CCN(Cc2ccc3ccccc3n2)CC1CCc1ccccc1` (racemic), the inhibition in assay [1] was 70%.
Same read-out and setting: to `COc1cccc2ccc(CN3CCC(F)(F)C(CCc4ccccc4)C3)nc12` (racemic) belongs 54%.
As for `COc1ccc(CCC2CN(Cc3c[nH]c4cc(Cl)ccc34)CCC2(F)F)cc1` (racemic), in assay [2], the IC50 worked out at 640 nM and the inhibition constant (Ki) was determined as 180 nM. The inhibition in assay [1] worked out at 88%.
The corresponding values for `COc1ccc2c(CN3CCC(F)(F)C(CCc4ccc(F)cc4)C3)c[nH]c2c1` (racemic) are 37 nM, 10.3 nM and 96%.
Regarding `FC1(F)CCN(Cc2c[nH]c3cc(Cl)ccc23)C[C@@H]1CCc1ccccc1`, the inhibition in assay [1] is 58%.
Take `Fc1ccccc1CCC1CN(Cc2ncn3ccccc23)CCC1(F)F` (racemic): in assay [2], the IC50 came out at 150 nM and the Ki stood at 42 nM. The inhibition in assay [1] came to 92%.
Turning to `Fc1ccc2c(CN3CCC(F)(F)[C@@H](CCc4ccccc4)C3)c[nH]c2c1`, the inhibition in assay [1] came to 64%.
Regarding `FC1(F)CCN(Cc2ccc3ccccc3c2)CC1CCc1ccccc1` (racemic), in assay [2], the concentration for half-maximal inhibition (IC50) worked out at 790 nM and the Ki was 220 nM. Moreover, the inhibition in assay [1] was determined as 80%.
On to `FC1(F)CCN(Cc2cccc3c2OCO3)CC1CCc1ccccc1` (racemic), for which, in assay [1], the inhibition stood at 18%.
For the compound `CCOc1ccccc1CN1CCC(F)(F)C(CCc2ccccc2)C1` (racemic), the inhibition in assay [1] is 49%.
Turning to `Fc1ccccc1CCC1CN(Cc2c[nH]c3cccc(F)c23)CCC1(F)F` (racemic), the inhibition in assay [1] came to 62%.
Turning to `FC1(F)CCN(Cc2nc3cc(Cl)ccc3cc2Cl)CC1CCc1ccccc1` (racemic), in assay [1], the inhibition stood at 16%.
As to `COc1ccccc1CCC1CN(Cc2c[nH]c3cc(F)ccc23)CCC1(F)F` (racemic), in assay [2], the IC50 came out at 170 nM and the Ki worked out at 48 nM. In assay [1], the inhibition was 94%.
On to `COc1cccc(CCC2CN(Cc3ccc(Cl)cc3)CCC2(F)F)c1` (racemic), for which, in assay [1], the inhibition was determined as 67%.
Same read-out and setting: to `FC(F)(F)c1cccc(CN2CCC(F)(F)C(CCc3ccccc3)C2)c1` (racemic) belongs 48%; to `FC1(F)CCN(Cc2cc3ccccc3s2)CC1CCc1ccccc1` (racemic), 51%.
On to `COc1cccc(CCC2CN(Cc3c[nH]c4cc(OC)ccc34)CCC2(F)F)c1` (racemic), for which, in assay [2], the IC50 worked out at 550 nM and the Ki turned out to be 150 nM. Further, the inhibition in assay [1] turned out to be 89%.
In the case of `Fc1ccc(CC[C@H]2CN(Cc3c[nH]c4cc(Cl)ccc34)CCC2(F)F)cc1`, in assay [2], the concentration for half-maximal inhibition (IC50) was found to be 3200 nM and the Ki is 890 nM. In assay [1], the inhibition came to 73%.
For `Fc1ccc(CCC2CN(Cc3ccc(Cl)cc3)CCC2(F)F)cc1` (racemic), in assay [2], the IC50 came to 65 nM and the inhibition constant Ki is 17.9 nM. In assay [1], the inhibition came out at 95%.

By inhibition is commonly meant how much of the control response was suppressed. By IC50 is commonly meant the concentration that gives 50% inhibition. For orientation: Ki means the dissociation constant of the complex between target and ligand, obtained from inhibition or displacement.
